Counter-ions that a name gives are not always drawn.

T1 sequence (Q02293 whole entry, one chain of several): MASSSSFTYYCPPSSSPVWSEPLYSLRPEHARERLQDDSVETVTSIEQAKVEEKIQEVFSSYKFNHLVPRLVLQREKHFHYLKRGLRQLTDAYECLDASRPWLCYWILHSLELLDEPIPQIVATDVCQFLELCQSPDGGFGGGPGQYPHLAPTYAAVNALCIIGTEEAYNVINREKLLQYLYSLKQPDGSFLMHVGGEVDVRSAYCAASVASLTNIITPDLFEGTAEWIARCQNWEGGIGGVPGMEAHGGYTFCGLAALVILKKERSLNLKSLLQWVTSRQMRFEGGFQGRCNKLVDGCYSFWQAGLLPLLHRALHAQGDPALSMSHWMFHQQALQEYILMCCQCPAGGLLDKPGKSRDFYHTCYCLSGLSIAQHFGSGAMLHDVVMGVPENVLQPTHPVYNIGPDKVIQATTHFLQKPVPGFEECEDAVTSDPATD

One assay has as its target T1, Rat brain protein farnesyltransferase (Rattus norvegicus, UniProt Q02293+Q04631).
T1 construct: Rat brain protein farnesyltransferase activity is measured; from tissue; host or cells: rat brain
Description: % inhibition of farnesylation, scintillation proximity assay with biotin-K Ras B fragment. It is filed as biochemical. Conditions: Table 1; 1 × 10^-5 M. An outline of the steps: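 Rat brain enzyme, purified through three steps, in a scintillation proximity assay kit with biotin-K Ras B fragment substrate at 0.1 mM final. Value is % inhibition of farnesylation.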
With `CSCC[C@H](NC(=O)c1ccc(NC(=O)Cc2ccccc2[N+](=O)[O-])cc1-c1ccccc1)C(=O)O` [Example 757], the “% inhibition at 1 × 10^-5 M” value was 58%.

Take `CSCC[C@H](NC(=O)c1ccc(CNc2cccc(O)c2)cc1-c1ccccc1)C(=O)O` [Example 676]: the “% inhibition at 1 × 10^-5 M” value amounted to 76%.

As to `CSCC[C@H](NC(=O)c1ccc(CNc2ccc3c(c2)CCC3)cc1-c1ccccc1)C(=O)O` [Example 705], the “% inhibition at 1 × 10^-5 M” value turned out to be 72%.

The same assay, now with this note: Table 2; 1 × 10^-6 M.
On to `CSCC[C@H](NC(=O)c1ccc(CNc2ccccc2N2CCCCC2)cc1-c1ccccc1)C(=O)O` [Example 673], for which the “% inhibition at 1 × 10^-6 M” value was 59%.

Consider `CSCC[C@H](NC(=O)c1ccc(CN[C@H](/C=C\CC(C)C)CC2CCCCC2)cc1-c1ccccc1)C(=O)O` [Example 666], for which the “% inhibition at 1 × 10^-6 M” value is on record as 82%.

For `CSCC[C@H](NC(=O)c1ccc(CN(C(C)C)C2(CC3CCCCC3)CCCC2)cc1-c1ccccc1C)C(=O)O` [Example 344], the “% inhibition at 1 × 10^-6 M” value amounted to 95%.

As to `CSCC[C@H](NC(=O)c1ccc(CN(CCc2ccccc2)c2ccccc2)cc1-c1ccccc1C)C(=O)O` [Example 507], the “% inhibition at 1 × 10^-6 M” value is recorded as 96%.

As for `COc1cccc(CNCc2ccc(C(=O)N[C@@H](CCSC)C(=O)O)c(-c3ccccc3)c2)c1` [Example 652], the “% inhibition at 1 × 10^-6 M” value was determined as 41%.

Turning to `CSCCC(NC(=O)c1ccc(NC(=O)c2cncnc2)cc1-c1ccccc1)C(=O)O` (centres unmarked) [Example 219], the “% inhibition at 1 × 10^-6 M” value came out at 56%.

Turning to `CSCC[C@H](NC(=O)c1ccc(CN(C)C(CC2CCCCC2)C(=O)N2CCCCC2)cc1-c1ccccc1C)C(=O)O` (some centres unmarked) [Example 301], the “% inhibition at 1 × 10^-6 M” value was 98%.

As for `CSCC[C@H](NC(=O)c1ccc(CNC(C)(C)Cc2ccccc2)cc1-c1ccccc1C)C(=O)O` [Example 307], the “% inhibition at 1 × 10^-6 M” value is given as 82%.

For the compound `CSCC[C@H](NC(=O)c1ccc(CN(C2CC2)C2(CC3CCCCC3)CC2)cc1-c1ccccc1C)C(=O)O` [Example 324], the “% inhibition at 1 × 10^-6 M” value is 98%.

For `CSCC[C@H](NC(=O)c1ccc(CN(C2CC2)C2(CC3CCCCC3)CCC2)cc1-c1ccccc1C)C(=O)O` [Example 330], the “% inhibition at 1 × 10^-6 M” value is listed as 98%.

For `CSCC[C@H](NC(=O)c1ccc(NC(=O)C2=C(C(F)(F)F)C=CNC2)cc1-c1ccccc1)C(=O)O` [Example 283], the “% inhibition at 1 × 10^-6 M” value is 98%.

For the compound `CSCC[C@H](NC(=O)c1ccc(CNCCS)cc1-c1ccccc1)C(=O)O` [Example 626], the “% inhibition at 1 × 10^-6 M” value came to 61%.

Take `CSCC[C@H](NC(=O)c1ccc(CNc2ccccc2CCO)cc1-c1ccccc1)C(=O)O` [Example 671]: the “% inhibition at 1 × 10^-6 M” value turned out to be 36%.

`CSCCC(NC(=O)c1ccc(NC(=O)Cc2cscn2)cc1-c1ccccc1)C(=O)O` (centres unmarked) [Example 162]: the “% inhibition at 1 × 10^-6 M” value stood at 12%.

As for `CSCC[C@H](NC(=O)c1ccc(CNCC(O)c2cccc(O)c2)cc1-c1ccccc1)C(=O)O` (some centres unmarked) [Example 661], the “% inhibition at 1 × 10^-6 M” value came out at 45%.

For `CSCC[C@H](NC(=O)c1ccc(CN(Cc2ccccc2)Cc2ccccc2)cc1-c1ccccc1)C(=O)O` [Example 834], the “% inhibition at 1 × 10^-6 M” value was 55%.

For `COc1ccccc1CCC(=O)Nc1ccc(C(=O)N[C@@H](CCSC)C(=O)O)c(-c2ccccc2C)c1` [Example 544], the “% inhibition at 1 × 10^-6 M” value is on record as 35%.

The assay is the same for the next values; noted with them: Table 3; 1 × 10^-7 M.
`CCCC(CCC)NOCc1ccc(C(=O)N[C@@H](CCSC)C(=O)O)c(-c2ccccc2C)c1` [Example 929]: the “% inhibition at 1 × 10^-7 M” value was 81%.

On to `CSCC[C@H](NC(=O)c1ccc(C=Cc2cncs2)cc1-c1ccccc1C)C(=O)[O-].[Li+]` [Example 785], for which the “% inhibition at 1 × 10^-7 M” value was determined as 96%.

The same assay, now with this note: Table 4; 1 × 10^-8 M.
As to `CSCC[C@H](NC(=O)c1ccc(CN(Cc2ccccc2)c2cccc([N+](=O)[O-])c2)cc1-c1ccccc1C)C(=O)[O-].[Li+]` [Example 842], the “% inhibition at 1 × 10^-8 M” value stood at 88%.

Take `CSCC[C@H](NC(=O)c1ccc(CN(CCC2CCCCC2)C2CC2)cc1-c1ccccc1C)C(=O)O` [Example 880]: the “% inhibition at 1 × 10^-8 M” value turned out to be 95%.

Staying with this assay, now noted: read-out: % inhibition at 0.01 μM (**).
On to `CSCC[C@H](NC(=O)c1ccc(CO[C@H](COC(C)C)CC2CCCCC2)cc1-c1ccccc1C)C(=O)O` [Example 1306, N-[4-[(S)-3-Cyclohexyl-1-(1-methylethoxy)prop-2-yloxymethyl]-2-(2-methylphenyl)benzoyl]methionine Lithium Salt], for which the inhibition at 0.01 µM was 85%.

Turning to `CSCC[C@H](NC(=O)c1ccc(COC(CCC2CCCCC2)c2ccns2)cc1-c1ccccc1C)C(=O)O` (some centres unmarked) [Example 1223, N-[4-(1-(Isothiaz-5-yl)-3-cyclohexylpropan-1-yloxymethyl)-2-(2-methylphenyl)benzoyl]methionine lithium salt], the inhibition at 0.01 µM stood at 91%.

Still in this assay, the particulars now being: read-out: % inhibition at 0.01 μM (**); Table 6; ** footnote 0.01 μM (title: 0.01 mM).
As for `COc1ccc(COC[C@H](CC2CCCCC2)OCc2ccc(C(=O)N[C@@H](CCSC)C(=O)O)c(-c3ccccc3C)c2)cc1` [Example 1051, N-[4-(3-cyclohexyl-1-(4-methoxybenzyloxy)prop-2-yloxymethyl)-2-(2-methylphenylbenzoyl]methionine, lithium salt], the inhibition at 0.01 µM came to 79%.

Still in this assay, the particulars now being: read-out: % inhibition at 1 × 10^-6 M.
Consider `CSCC[C@H](NC(=O)c1ccc(COCc2ccccc2C)cc1-c1ccccc1C)C(=O)O` [Example 577, N-[4-(2-methylbenzyloxymethyl)-2-(2-methylphenyl)benzoyl]methionine lithium salt], for which the inhibition at 1 µM was determined as 94%.

With `CSCC[C@H](NC(=O)c1ccc(COCCCc2ccccc2)cc1-c1ccccc1C)C(=O)O` [Example 595, N-[4-(3-phenylpropoxymethyl)-2-(2-methylphenyl)benzoyl]methionine lithium salt], the inhibition at 1 µM was 97%.

Staying with this assay, now noted: read-out: % inhibition at 1 × 10^-6 M; Table 2; 1 × 10^-6 M.
In the case of `CSCC[C@H](NC(=O)c1ccc(OCCOc2ccccc2)cc1-c1ccccc1C)C(=O)O` [Example 561, N-[4-(2-phenoxy)ethoxy-2-(2-methylphenyl)benzoyl]methionine], the inhibition at 1 µM was found to be 91%.

The same assay, now with this note: read-out: % inhibition at 1 × 10^-7 M.
For `CSCC[C@H](NC(=O)c1ccc(COCCc2ccco2)cc1-c1ccccc1C)C(=O)O` [Example 531, N-[4-(2-furan-2-ylethoxymethyl)-2-(2-methylphenyl)benzoyl]methionine lithium salt], the inhibition at 0.1 µM was 74%.

On to `CSCC[C@H](NC(=O)c1ccc(COC2CCC(NC(=O)OC(C)(C)C)CC2)cc1-c1ccccc1C)C(=O)O` (some centres unmarked) [Example 817, N-[4-(4-t-butoxycarbonylaminocyclohexyloxymethyl)-2-(2-methylphenyl)benzoyl]methionine lithium salt], for which the inhibition at 0.1 µM amounted to 60%.

On to `CSCC[C@H](NC(=O)c1ccc(COCc2ccc(-c3ccc(F)cc3)o2)cc1-c1ccc(F)cc1Cl)C(=O)O` [Example 869, N-[4-(5-(4-fluorophenyl)furan-2-ylmethoxymethyl)-2-(2-chloro-4-fluorophenyl)benzoyl]methionine lithium salt], for which the inhibition at 0.1 µM worked out at 92%.

Still in this assay, the particulars now being: read-out: % inhibition at 1 × 10^-7 M; Table 3; 1 × 10^-7 M.
On to `C=C(C)C1CC=C(COCc2ccc(C(=O)N[C@@H](CCSC)C(=O)O)c(-c3ccccc3C)c2)CC1` (some centres unmarked) [Example 521, N-[4-(4-isoprop-2-enylcyclohexen-1-yl)methoxymethyl-2-(2-methylphenyl)benzoyl]methionine lithium salt], for which the inhibition at 0.1 µM was 94%.

Still in this assay, the particulars now being: read-out: % inhibition at 1 × 10^-8 M.
Take `CSCC[C@H](NC(=O)c1ccc(COCc2cc(-c3ccc(Cl)cc3)co2)cc1-c1ccccc1C)C(=O)O` [Example 904, N-[4-(4-(4-chlorophenyl)furan-2-ylmethoxymethyl)-2-(2-methylphenyl)benzoyl]methionine lithium salt]: the inhibition at 0.01 µM came to 85%.
